Source: US20260224678A1, “EXPEDITED NEOANTIGEN VACCINES” (priority 2023, published 2026)

Tested on: T cells
Assay: Elispot response after vaccination with neoepitope peptides
Format: cell-based, human
Settings: subject with R132H mutation of IDH1 vaccinated multiple times with two 9 mer peptides and a 15 mer peptide carrying the motifs
Text: As noted above, T cell exposed motif frequency is also a criterion for selection of vaccinal peptides from mutated passenger gene products. Table 10—(also replicated as FIG. 5) provides an example for a particular individual cancer-affected subject showing the selection of the most advantageous peptides based on frequency of occurrence in reference databases of pentamer counts and the subject's HLA alleles. When the pentamers in tumor specific T cell exposed motifs that expose a mutated amino acid are absent or low frequency in the human proteome, particular attention is paid to the frequency count in databases of exogenous proteins. In the table we show application of the representative gastrointestinal microbiome dataset. Application of this database should not be considered limiting and other reference sets likely to be indicative of prior epitope exposure may be applied. In this example the top two passenger mutations (in genes ARHGAP5 and ATIC) have T cell exposed motifs which are common. However, the lower two mutations (in CDC42 and CHD6) are poorly represented in the human and gastrointestinal microbiome reference datasets. Selected peptides for these two mutated proteins (margins boxed in FIG. 5) that best fulfil the criteria of frequency and also binding to this subject's known HLA alleles include SEQ ID NO.:s. 1891, 1897, 1898, 1914, 1915, 1916, 1921. In another embodiment a subject affected with a R132H mutation of IDH1 was vaccinated multiple times with two 9 mer peptides both exposing the mutant histidine. One peptide carried T cell exposed motif ~~~IGHHA~ (SEQ ID NO.: 1924) and the other carrying ~~~GHHAY~ SEQ ID NO.: 1925 and a 15 mer peptide comprising KP~I~GH SEQ ID NO.: 1927. A positive Elispot response was detected to SEQ ID NO.: 1924 and 1927 but not SEQ ID NO.: 1925.
Methods of expansion of T cells and sequencing of the T cell receptors (TCR) therein are known to the art. […]

With 1924 (IGHHA) [compound 1924] the Elispot was “positive”.

For 1925 (GHHAY) [compound 1925], the Elispot was “negative”.

1927 (KPIGH) [compound 1927] was tested, and the Elispot was “positive”.
